PMC9184653, “LDL receptor-related protein 1 (LRP1), a novel target for opening the blood-labyrinth barrier (BLB)” (Signal Transduction and Targeted Therapy, 2022)
Where no end group is shown, it is not given here.

What was measured:
[1] = molecular target: T1, LRP1 (Mus musculus, UniProt Q91ZX7); experiment: immunofluorescence imaging of cochleae after intravenous injection (distribution, colocalization with LRP1); assay type: in vivo; conditions: i.v. injection
T1 construct: from tissue; host or cells: cochleae of C57BL/6J mice
T1 sequence (Q91ZX7 20-4545): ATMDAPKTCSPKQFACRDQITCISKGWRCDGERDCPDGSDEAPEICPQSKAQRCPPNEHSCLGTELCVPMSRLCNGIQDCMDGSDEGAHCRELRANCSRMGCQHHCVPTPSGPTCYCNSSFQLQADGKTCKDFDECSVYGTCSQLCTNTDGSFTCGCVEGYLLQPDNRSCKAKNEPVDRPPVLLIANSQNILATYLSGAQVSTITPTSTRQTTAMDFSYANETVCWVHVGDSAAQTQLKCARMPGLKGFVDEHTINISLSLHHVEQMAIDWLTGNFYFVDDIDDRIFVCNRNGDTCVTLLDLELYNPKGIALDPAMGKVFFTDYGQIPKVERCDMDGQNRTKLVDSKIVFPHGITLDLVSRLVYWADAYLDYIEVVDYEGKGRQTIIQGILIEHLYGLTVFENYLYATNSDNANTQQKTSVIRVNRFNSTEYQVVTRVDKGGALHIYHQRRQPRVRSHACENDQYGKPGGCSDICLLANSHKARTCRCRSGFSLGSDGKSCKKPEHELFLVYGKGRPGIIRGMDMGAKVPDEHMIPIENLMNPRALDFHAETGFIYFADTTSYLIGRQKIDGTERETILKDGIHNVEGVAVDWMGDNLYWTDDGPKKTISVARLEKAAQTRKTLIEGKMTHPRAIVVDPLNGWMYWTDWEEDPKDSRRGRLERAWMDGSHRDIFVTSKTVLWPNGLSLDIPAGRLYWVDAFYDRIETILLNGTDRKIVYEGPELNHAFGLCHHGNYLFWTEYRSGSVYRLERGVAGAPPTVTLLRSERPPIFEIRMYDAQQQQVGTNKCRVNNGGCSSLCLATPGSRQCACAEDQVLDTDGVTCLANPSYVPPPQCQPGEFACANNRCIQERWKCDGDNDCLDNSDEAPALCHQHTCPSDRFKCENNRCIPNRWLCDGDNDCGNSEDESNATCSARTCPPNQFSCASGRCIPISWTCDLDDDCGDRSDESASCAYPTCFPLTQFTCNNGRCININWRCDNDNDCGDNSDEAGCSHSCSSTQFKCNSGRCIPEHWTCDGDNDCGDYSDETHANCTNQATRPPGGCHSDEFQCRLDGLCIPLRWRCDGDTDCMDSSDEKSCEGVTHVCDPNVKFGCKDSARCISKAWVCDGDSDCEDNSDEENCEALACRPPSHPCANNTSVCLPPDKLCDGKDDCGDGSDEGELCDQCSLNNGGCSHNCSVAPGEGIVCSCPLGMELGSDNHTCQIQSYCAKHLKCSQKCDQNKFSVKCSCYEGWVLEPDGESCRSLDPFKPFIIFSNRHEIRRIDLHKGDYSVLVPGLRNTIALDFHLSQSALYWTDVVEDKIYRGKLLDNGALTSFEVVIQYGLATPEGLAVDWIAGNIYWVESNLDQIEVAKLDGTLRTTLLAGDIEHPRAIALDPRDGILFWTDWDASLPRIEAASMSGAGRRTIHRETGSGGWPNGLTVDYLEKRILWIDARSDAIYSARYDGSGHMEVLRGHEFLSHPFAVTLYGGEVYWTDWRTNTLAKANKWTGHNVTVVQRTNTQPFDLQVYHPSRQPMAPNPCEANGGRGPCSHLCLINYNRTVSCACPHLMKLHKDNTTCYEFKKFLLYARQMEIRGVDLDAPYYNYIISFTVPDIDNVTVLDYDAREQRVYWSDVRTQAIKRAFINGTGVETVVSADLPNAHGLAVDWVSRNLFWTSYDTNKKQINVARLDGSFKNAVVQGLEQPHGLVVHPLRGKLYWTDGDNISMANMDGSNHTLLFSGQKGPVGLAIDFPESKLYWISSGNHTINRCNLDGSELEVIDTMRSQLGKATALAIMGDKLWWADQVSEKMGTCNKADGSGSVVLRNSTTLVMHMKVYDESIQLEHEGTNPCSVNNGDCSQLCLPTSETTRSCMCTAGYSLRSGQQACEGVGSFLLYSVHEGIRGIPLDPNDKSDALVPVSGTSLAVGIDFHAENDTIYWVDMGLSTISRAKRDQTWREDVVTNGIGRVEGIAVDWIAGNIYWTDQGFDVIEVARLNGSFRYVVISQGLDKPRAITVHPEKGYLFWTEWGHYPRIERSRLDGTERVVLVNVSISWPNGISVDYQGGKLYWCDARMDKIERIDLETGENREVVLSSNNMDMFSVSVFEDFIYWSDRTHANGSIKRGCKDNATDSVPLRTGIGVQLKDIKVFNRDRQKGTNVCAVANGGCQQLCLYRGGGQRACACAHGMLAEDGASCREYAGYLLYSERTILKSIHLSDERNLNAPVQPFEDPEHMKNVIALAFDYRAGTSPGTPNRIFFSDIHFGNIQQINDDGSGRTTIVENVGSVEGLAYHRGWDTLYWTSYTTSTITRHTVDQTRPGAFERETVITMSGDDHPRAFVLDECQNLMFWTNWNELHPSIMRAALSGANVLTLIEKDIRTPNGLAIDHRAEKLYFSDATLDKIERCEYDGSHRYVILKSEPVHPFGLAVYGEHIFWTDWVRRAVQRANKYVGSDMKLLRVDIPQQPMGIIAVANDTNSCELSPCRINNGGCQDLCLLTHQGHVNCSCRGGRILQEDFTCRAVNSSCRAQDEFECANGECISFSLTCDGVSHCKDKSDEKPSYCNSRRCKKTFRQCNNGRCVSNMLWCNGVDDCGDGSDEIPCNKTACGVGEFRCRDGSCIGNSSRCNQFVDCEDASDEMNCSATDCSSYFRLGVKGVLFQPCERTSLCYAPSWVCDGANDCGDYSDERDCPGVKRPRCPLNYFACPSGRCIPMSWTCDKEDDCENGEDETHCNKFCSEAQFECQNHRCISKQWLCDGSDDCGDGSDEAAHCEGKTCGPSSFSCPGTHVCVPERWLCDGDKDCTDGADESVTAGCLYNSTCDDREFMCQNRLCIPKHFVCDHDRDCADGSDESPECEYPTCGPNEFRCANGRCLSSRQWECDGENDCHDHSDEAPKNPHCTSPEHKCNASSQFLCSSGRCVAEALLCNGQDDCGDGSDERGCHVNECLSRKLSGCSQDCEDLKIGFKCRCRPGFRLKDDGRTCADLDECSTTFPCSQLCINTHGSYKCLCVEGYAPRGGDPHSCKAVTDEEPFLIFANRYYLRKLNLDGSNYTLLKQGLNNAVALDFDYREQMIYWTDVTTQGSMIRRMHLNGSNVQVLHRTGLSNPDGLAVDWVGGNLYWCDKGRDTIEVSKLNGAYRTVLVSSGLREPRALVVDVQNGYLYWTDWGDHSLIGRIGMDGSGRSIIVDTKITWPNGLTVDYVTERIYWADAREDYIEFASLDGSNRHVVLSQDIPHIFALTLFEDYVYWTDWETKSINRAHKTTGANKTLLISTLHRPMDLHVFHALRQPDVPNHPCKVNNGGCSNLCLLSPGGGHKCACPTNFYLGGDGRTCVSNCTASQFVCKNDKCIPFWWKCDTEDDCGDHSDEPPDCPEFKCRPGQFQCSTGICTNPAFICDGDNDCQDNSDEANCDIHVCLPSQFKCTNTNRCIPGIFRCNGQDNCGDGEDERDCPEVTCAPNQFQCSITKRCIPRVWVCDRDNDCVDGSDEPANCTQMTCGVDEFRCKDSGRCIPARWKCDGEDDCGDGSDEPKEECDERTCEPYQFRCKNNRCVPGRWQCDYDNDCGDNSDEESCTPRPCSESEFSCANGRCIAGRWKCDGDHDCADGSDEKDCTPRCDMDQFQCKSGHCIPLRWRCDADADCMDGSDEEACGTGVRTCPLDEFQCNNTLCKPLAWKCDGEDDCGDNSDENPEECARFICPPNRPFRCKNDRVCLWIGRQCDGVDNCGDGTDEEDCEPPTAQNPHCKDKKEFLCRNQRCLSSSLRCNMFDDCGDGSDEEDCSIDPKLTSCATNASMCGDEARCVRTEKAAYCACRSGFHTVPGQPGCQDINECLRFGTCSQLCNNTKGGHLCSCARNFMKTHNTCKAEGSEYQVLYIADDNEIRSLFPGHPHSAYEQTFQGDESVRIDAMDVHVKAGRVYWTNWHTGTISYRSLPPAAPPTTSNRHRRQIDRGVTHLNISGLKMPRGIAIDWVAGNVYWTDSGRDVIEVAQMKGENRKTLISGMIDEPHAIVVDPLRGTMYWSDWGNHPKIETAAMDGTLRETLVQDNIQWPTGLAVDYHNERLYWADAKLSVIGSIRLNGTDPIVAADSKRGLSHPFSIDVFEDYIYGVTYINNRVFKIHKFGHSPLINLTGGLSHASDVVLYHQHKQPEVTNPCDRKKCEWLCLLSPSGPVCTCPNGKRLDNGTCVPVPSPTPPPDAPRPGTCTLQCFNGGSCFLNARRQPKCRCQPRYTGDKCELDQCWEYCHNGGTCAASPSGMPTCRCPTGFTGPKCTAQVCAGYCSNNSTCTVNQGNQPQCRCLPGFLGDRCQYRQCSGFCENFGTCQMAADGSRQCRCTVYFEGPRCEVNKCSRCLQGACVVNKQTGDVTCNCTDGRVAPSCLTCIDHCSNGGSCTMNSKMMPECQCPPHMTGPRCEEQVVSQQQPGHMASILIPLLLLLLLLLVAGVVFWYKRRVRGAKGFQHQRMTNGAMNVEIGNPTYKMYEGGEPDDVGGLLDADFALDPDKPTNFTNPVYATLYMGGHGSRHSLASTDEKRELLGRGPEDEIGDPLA
Experimental: (§1) To classify the roles of LRP1 in the transportation of IETP2 to the inner ear, the binding affinity of IETP2 to LRP1 was first determined using biolayer interferometry (BLI, Fig. 2d). […] SV was further imaged from another view. […] The Manders’ colocalization coefficients (MCCs) of LRP1 and IETP2 in IHCs, ECs, SP cells, and SGNs were 0.71515, 0.64284, 0.56482, and 0.70552, respectively.
Four-week-old C57BL/6J mice of either sex were harvested 50 min and 2 h post-injection. Cochleae were fixed in 4% paraformaldehyde at 4 °C for 8 h and decalcified in 4% EDTA for 4 days at room temperature (RT). Parts of the cochleae were dissected into pieces containing the basilar membrane (BM), organ of Corti (OC) and stria vascularis (SV) from the apex to the hook region and then used for whole-mount immunofluorescence. Other parts of the cochleae were dehydrated using a graded sucrose solution (15% and 30%; 3 h for each grade) at RT, embedded in optimum cutting temperature (OCT) compound for 5 h at RT, frozen for 1 h at −20 °C and sectioned with a freezing microtome (Leica CM1900) at an 8 μm thickness.
For whole-mount and cross-section immunofluorescence, tissues were incubated with 0.1% Triton X-100 and blocked with 10% donkey serum for 2 h at RT before the application of the primary antibodies. […]

[2] = tested on: mouse cochleae; experiment: in vivo and ex vivo fluorescence imaging of cochlear uptake; conditions: IETP2-Cy5.5, i.v., BALB/c nude mice
Source text: To validate whether the selected IETPs could cross the BLB and to evaluate the inner ear-targeting efficacy, IETPs were covalently conjugated with the fluorescent dye Cy5.5 and intravenously injected into mice. In vivo and ex vivo fluorescence imaging of cochleae was used for evaluation. […] The IETP2 signal was visualized with in vivo fluorescence imaging (Fig. 2c). Compared to that in the brain and muscle, the signal of IETP2 detected in the cochleae was much stronger (Fig. 2c). […] Therefore, IETP2 was selected for the subsequent experiments.
BALB/c nude mice (4 weeks old, either sex) were divided into three groups (5 mice for each group). […] After the indicated times, the animals were anesthetized with isoflurane and subjected to live animal imaging (IVIS Lumina III, Caliper LifeSciences, MA, USA). The excitation/emission filter was set at 625/700 nm, and images were taken with an interval of 20 min post-injection. To validate the uptake efficiency of different IETPs, mice were sacrificed 1 h post-injection, and the cochleae were collected and imaged. […] The time-dependent uptake of IETP2 in mouse cochleae was assessed at a series of time points (1, 1.5, 2, and 2.5 h) with 3 mice at each time point for each group. Collected images were analyzed using Living Image software (IVIS Imaging System, 4.5.5).

[3] = tested on: C57BL/6J mice; experiment: ototoxicity evaluation by auditory brainstem response (ABR) testing; assay type: in vivo, mouse; conditions: 6 mice, 12 ears, 7- and 14-days post-administration
Experimental: Auditory brainstem response (ABR) testing was conducted in a standard soundproof chamber for animal use. Mice were anesthetized with a mixture of isoflurane (Keyue Life Science Co., Ltd.) and air via a respirator for animal use (Medical Supplies and Services Int., Ltd.) and an aquarium air pump (HAILEA, A00–5505). The final concentration of isoflurane was 2% at a flow rate of 1.5. Circulating heating pads were placed under the mice to maintain body temperature at 37 °C. ABRs were recorded with a Tucker Davis Technologies (TDT) RZ6 instrument, and the sound was delivered by a calibrated loudspeaker (TDT, MF1 2356).
For ABR testing, needle electrodes were inserted beneath the skin. The recording electrode was inserted at the vertex, the reference electrode was inserted at the pinna, and the ground electrode was inserted near the tail. The ABR stimuli were frequency-specific tone pips at frequencies from 1 kHz to 32 kHz with a duration of 5 ms (0.5 ms rise-fall delivered at 21.1/sec), and each response was amplified 10,000-fold with a filter passband of 100 Hz to 3 kHz and averaged over 1024 times. The signal started at 90 dB sound pressure level (SPL) with a step of 10 dB and decreased to 10 dB SPL at frequencies of 4, 8, 16, 24, and 32 kHz for mice. The threshold was defined as the lowest dB SPL with an identifiable and repeatable wave I for mice. […]

[4] = tested on: pig cochleae; experiment: pig cochlear immunofluorescence imaging after intravenous injection; assay type: in vivo; conditions: IETP2 labeled with 5-TAMRA or Cy5.5, earlobe vein injection, 2 h post-injection
Experimental: To further test the generality of IETP2 in large mammals, IETP2 labeled with 5-TAMRA or Cy5.5 was injected into pigs via earlobe veins. Two hours post-injection, the pigs were sacrificed (Supplementary Figs. S5 and S6, representative images of three independent experiments).
The zoomed-in OC images in the white dotted rectangle in f.
Images from the IETP2-5-TAMRA injection group. […] Images from the 5-TAMRA injection group. […] The setting parameters for the microscope (including the excitation intensity and emission gain) remained consistent throughout the experiments. c. […] Images of pig cochleae injected with free Cy5.5 (2 h after injection). (DAPI: blue; LRP1: green; phalloidin: magenta. Scale bars for the overview of porcine cochlear mid turn are 200 µm; others are 10 µm.)

[5] = molecular target: LRP1 (Homo sapiens, UniProt Q07954); experiment: biolayer interferometry (BLI) binding of IETP2 to LRP1; conditions: kinetic analysis, read-out: dissociation constant (KD) of IETP2 binding to LRP1
Source text: Gly-Cy5.5 served as a negative control. d Kinetic analysis of IETP2 binding to LRP1. […] Scale bars: e, j, o 100 µm, y, z 50 µm, others 10 µm.)
as §1

CCN1\C(=C/C=C/C=C/C2=[N+](CCCCCC(=O)O)c3ccc4c(S(=O)(=O)O)cc(S(=O)(=O)O)cc4c3C2(C)C)C(C)(C)c2c1ccc1c(S(=O)(=O)[O-])cc(S(=O)(=O)O)cc21 [Cy5.5]
distribution in cochleae, free dye [1]: limited distribution inside blood vessels in the SV and SGN regions

TFYGGRPKRNNFLRGIRSRGD [IETP2]
signal in the cochleae compared to brain and muscle [2]: much stronger | ototoxicity (ABR thresholds) [3]: no obvious ototoxicity | transport into the inner ear of pigs [4]: could be transported into the inner ears | Kd [5]: 0.738 µM
